# Where “and” joins values, the source holds several entries; their conditions need not be identical. Equal values may be shown once.
# Key:
# [1] = Protection of squalene against oxidation induced by hydrogen peroxide (GC/MS of non-oxidised squalene); settings: H2O2 6%, 1 h; for Squalène Moyenne: mean; for Squalène (µg/ml): single trials (Essai)
# Excerpt: L'objectif de ce test est d'évaluer l'inhibition par la DHM de l'oxydation du squalène, induite par le peroxyde d'hydrogène (H2O2). Le Trolox (6-Hydroxy-2,5,7,8-tétraméthylchroman-2-carboxylic acid), un équivalent hydrosoluble de la vitamine E, est un antioxydant connu et est utilisé dans ces tests en tant que témoin positif.
# Le squalène (Sigma Aldrich) est dans un premier temps solubilisé dans une chambre réactionnelle.
# L'oxydation du squalène est induite par l'ajout d'une solution de peroxyde d'hydrogène (H2O2 à une concentration finale de 6%).
# Les actifs devant être évalués sont ajoutés au mélange réactionnel. Ainsi, le Trolox à 0,8% en poids est utilisé comme témoin positif de la protection contre l'oxydation du squalène.
# Un contrôle positif, correspondant au squalène incubé en présence d'H2O2, et un contrôle négatif, correspondant au squalène non exposé à l'H2O2, sont également réalisés.
# Le mélange obtenu est mis sous agitation pendant une heure, à température ambiante et à l'abri de la lumière.
# Le squalène est ensuite extrait du milieu réactionnel à l'aide d'une extraction liquide/liquide. Après évaporation de la solution organique, le résidu est solubilisé dans une solution de chloroforme et le squalène est analysé par une méthode de chromatographie GC/MS.
# La mesure de la concentration en squalène permet d'estimer la quantité de squalène ayant été oxydée au cours de la réaction. En effet et selon la technique de mesure utilisée, seule la forme non oxydée est détectée.
# [2] = tested on: collagénase issue de Clostridium histolyticum; experiment: Anti-collagenase activity, MMP-1 kit, in tubo fluorescence test; type: biochemical
# Excerpt: L'activité anti-collagénase est mesurée grâce au kit MMP-1 (Molecular Probes; Réf E12055). Le principe est basé sur la capacité d'une enzyme de la famille des MMP (« Marix Metallo-Proteinase ») zinc-dépendantes, en l'occurrence la collagénase issue de Clostridium histolyticum, à hydrolyser son substrat (collagène-I) pour donner des composés fluorescents mesurables.
# En présence d'un inhibiteur, l'action de l'enzyme est altérée empêchant l'hydrolyse de son substrat. La 1,10 phénanthroline est utilisée comme le témoin positif d'inhibition de l'enzyme. La fluorescence émise à 535 nm est mesurée après excitation à 485 nm.
# La 1,10-phenanthroline monohydrate (10mM), un inhibiteur connu des MMP fourni dans le kit, est utilisée comme contrôle positif.
# Les contrôles négatifs suivants ont été réalisés : • Témoin H2O : ce témoin a été utilisé pour solubiliser la 1-10-phenantroline monohydrate; il représente arbitrairement 100% d'activité de l'enzyme par rapport aux résultats obtenus avec ce contrôle. • Témoin solvant (DMSO 1%) : quantité de solvant inclus dans l'ensemble des actifs et associations à tester; il représente arbitrairement 100% d'activité de l'enzyme par rapport aux résultats obtenus avec les actifs et associations testés.
# Le gluconate de zinc a été testé à la concentration de 0,1% (en poids).
# La DHM a été testée aux concentrations suivantes : 0,002% et 0,05% (en poids). L'association gluconate de zinc 0,1% + DHM 0,002% a également été testée.
# Les analyses quantitatives sont exprimées sous forme de moyenne ± l'écart type. La significativité statistique est déterminée par un test de Student. Les différences sont considérées comme statistiquement significatives entre l'actif testé et son témoin solvant à partir de p<0.05. (NS : […]).
# [3] = tested on: lignée de sébocytes humains SEB0662; experiment: MTT cell viability / cytotoxicity test in sebocytes; type: cell-based
# Protocol: (§1) Dans cette étude, on utilise la lignée de sébocytes humains SEB0662.
# (§2) Les cellules sont cultivées dans le milieu de culture classique des sébocytes, à 37°C et en présence de 5% de CO2. Les cellules sont utilisées au 7^ème passage.
# La sélection des doses d'actifs est réalisée grâce à un test de viabilité cellulaire au MTT. On retient les doses qui permettent de maintenir une viabilité supérieure à 90%.
# L'erreur standard de la moyenne (esm) représente l'écart de ln moyenne de l'échantillon par rapport à la moyenne de la population. L'esm est calculée en divisant l'écart-type (Sd) par la racine carrée de la taille de l'échantillon (sqrt(n)). Erreur standard de la moyenne(esm) = écart-type(Sd)/sqrt(n) [formula] Pourcentage de viabilité: viabilité(%) = (DOcomposé/DOtémoin) × 100 [formula] Pourcentage de stimulation: Stimulation(%) = [(Valeur/moyennedutémoin)×100]−100 [formula] Pourcentage de d'inhibition: Inhibition(%) = 100−[(Valeur/moyennedutémoin)×100] [formula]
# [4] = tested on: sébocytes SEB0662; experiment: IGF-1 induced lipid synthesis in sebocytes (Bodipy lipid droplet labelling, 14 days); type: cell-based, humains; settings: 0,001%, IGF-1 20 ng/ml
# Protocol: La présente étude vise à étudier l'effet de la DHM et/ou du gluconate de zinc (Zn) sur l'inhibition de la synthèse des lipides, induite par l'ajout d'IGF-1, dans les sébocytes. Cet effet est suivi par marquage, à l'aide d'une sonde lipidique fluorescente couplée au Bodipy®, des sébocytes SEB0662 cultivés en monocouche pendant 14 jours en milieu de différenciation (supplémenté en IGF-1 à 20 ng/ml).
# as §1, §2
# Pour l'évaluation des actifs, un milieu dit de différenciation (milieu de culture classique supplémenté en dihydrotestostérone, albumine bovine sérique, acide linoléïque, glucose, sérum de veau fœtal, hydrocortisone et agonistes des PPAR (« Peroxysome Proliferator Activated Receptor »)), complémenté en IGF-1 à 20 ng/ml, est utilisé. L'ajout d'IGF-1 stimule la production de lipides par les sébocytes. […]
# Les marquages sont quantifiés par mesure de l'intensité de fluorescence de la sonde rapportée au nombre de noyaux identifiés par le Hoechst (intégration des données numériques par le logiciel Developer Toolbox 1 .5, GE Healthcare). […]
# [5] = tested on: Propionibacterium acnes ATCC 69.19; experiment: Growth inhibition of P. acnes, micromethod of Lens-Lisbonne et al. (MIC); type: cell-based; settings: first concentration with growth <= 20 %, 36° C, 3 to 5 days, anaerobic
# Excerpt: L'objet de cette étude est d'évaluer l'activité inhibitrice de composés vis-à-vis de la souche Propionibacterium acnes selon les principes de la méthode décrite par Lens-Lisbonne et al. (1987).
# La méthode de Lens-Lisbonne et al. permet de tester en milieu liquide le pouvoir antibactérien de substances faiblement solubles et/ou très volatiles, et permet d'éviter les méthodes par diffusion ou en phase vapeur. Brièvement, elle consiste à mettre en présence des volumes égaux de produit à tester et de milieu inoculé, à différentes concentrations. […] L'activité inhibitrice est évaluée à partir des mesures d'absorbance du mélange, comparées aux conditions contrôle. […]
# Après incubation de la microplaque pendant une durée définie, la densité optique à 620 nm est mesurée. Les résultats sont exprimés en pourcentage de croissance calculé par rapport à un témoin de croissance et un témoin d'absorbance selon l'équation suivante: Pourcentage de croissance = (DOmesuréeduproduitàlaconcentrationC−DOmesuréedutémoind'absorbanceproduitàlaconcentrationC)/DO mesurée témoin de croissance [formula] […]
# Le test est effectué sur microplaque 96 puits. En synthèse, 30 puits sont utilisés pour les témoins d'absorbance; 30 puits sont utilisés pour les essais. […]
compound,measurement,setting,value
"Cc1c(C)c2c(c(C)c1O)CCC(C)(C(=O)O)O2 (stereo not drawn) [Trolox, 6-Hydroxy-2,5,7,8-tétraméthylchroman-2-carboxylic acid, reference compound]",Indice de protection (%),"[1]; 0,8 % en poids","42,94%"
same,Squalène Moyenne,"[1]; 0,8 % en poids","31,85 µg/ml"
same,Squalène (µg/ml),"[1]; 0,8 % en poids","31,41 µg/ml and 31,88 µg/ml and 32,25 µg/ml and 34,60 µg/ml and 32,49 µg/ml"
"O.c1cnc2c(c1)ccc1cccnc12 [1-10-phénanthroline monohydrate, 1,10-phenanthroline monohydrate, reference compound]",inhibition de l'activité collagénase,"[2]; 10mM, versus H2O control","79,6%"
gluconate de zinc [reference compound],cytotoxicité,"[3]; 0,001%",ne présente pas de cytotoxicité
same,inhibition de la synthèse des lipides induite par l'IGF-1,[4],~15%
same,inhibition de l'activité collagénase,"[2]; 0,1% en poids, versus DMSO 1% control","80,2%"
same,CMI microméthode (%-m/v),[5]; Test 1,"0,05 %-m/v"
same,CMI microméthode (%-m/v),[5]; Test 2,"0,05 %-m/v"
"O=C1c2c(O)cc(O)cc2O[C@H](c2cc(O)c(O)c(O)c2)[C@H]1O [DHM, (2R,3R)-3,5,7-trihydroxy-2-(3,4,5-trihydroxyphenyl)-2,3-dihydrochromen-4-one]",Indice de protection (%),"[1]; 0,01 % en poids","35,19%"
same,Squalène Moyenne,"[1]; 0,01 % en poids","26,10 µg/ml"
same,Squalène (µg/ml),"[1]; 0,01 % en poids","27,01 µg/ml and 24,86 µg/ml and 26,42 µg/ml"
same,Indice de protection (%),"[1]; 0,05 % en poids","45,28%"
same,Squalène Moyenne,"[1]; 0,05 % en poids","33,58 µg/ml"
same,Squalène (µg/ml),"[1]; 0,05 % en poids","34,44 µg/ml and 32,88 µg/ml and 33,41 µg/ml"
same,Indice de protection (%),"[1]; 0,005 % en poids","28,64%"
same,Squalène Moyenne,"[1]; 0,005 % en poids","21,24 µg/ml"
same,Squalène (µg/ml),"[1]; 0,005 % en poids","19,84 µg/ml and 21,37 µg/ml and 22,51 µg/ml"
same,effet cytotoxique,"[3]; tested up to 0,003%",ne montre pas d'effet cytotoxique
same,inhibition de l'activité collagénase,"[2]; 0,05% en poids, versus DMSO 1% control","30,1%"
same,inhibition de l'activité collagénase,"[2]; 0,002% en poids, versus DMSO 1% control","3,5%"

# Reference: EP3364964B1, “COMPOSITION BASED ON DIHYDROMYRICETIN AND A ZINC SALT FOR THE TREATMENT OF ACNE AND OILY SKIN” (Thorel, Jean-Noël, priority 2015, dated 2017)
